Reference: patent US4349546A, “D-Allose derivative and preparation method therefor” (Wakamoto Pharmaceutical Co., Ltd., priority 1980, dated 1982)

Assays:
[1] = test system: leukemia L-1210, P 388, Lewis lung carcinoma, β-16 melanoma and mouse lung autotumor; experiment: Antitumor effect, overall statement of the patent; type: in vivo, warm-blooded animals; mice
[2] = test system: Lewis lung carcinoma cells; experiment: Test of therapeutical effects on Lewis lung carcinoma (Test Example 3); type: in vivo, BDF mice; details: for Number of survivals: 60 days
From the text: (1) Test animals: About 6-week old BDF mice each weighing 22±1 g; one group comprising 7 male mice.
5×10^5 Lewis lung carcinoma cells per mouse were implanted under the skin of each mouse. […] The rate of apothanasia and number of survivals after 60 days were examined.
*"day 1-9" in the column of "Method of Administration" indicates
continuous administration once/day for 9 days subsequently to "day 1".

Toxicity tests (LD50) = details: mouse, in vivo, DDY male mice
Description: CNUA dissolved in isotonic sodium chloride solution was given to DDY male mice each weighing 20 to 22.5 g by intraperitoneal administration, intravenous administration and peroral administration, and LD50 values were determined.

Leukemia P-388 cells = experiment: Antileukemia test, P-388 (Test Example 2); type: in vivo, CDF mice; details: for ILS (rate of apothanasia): 24 hours after implantation; for Number of survivals: 60 days
Description: (1) Test animals: The same animals as in Test 1.
(§1) 1×10^5 Leukemia P-388 cells per mouse were implanted into the abdomen of each mouse. After 24 hours, a given amount of CNUA dissolved in isotonic sodium chloride solution was administered to the mice. The rate of apothanasia (%) and number of survivals after 60 days were examined.

[3] = test system: Peripheral leukocyte count; experiment: Effects on peripheral leukocyte count (Test Example 6); type: in vivo, DDY mice
From the text: Comparison of effects of CNUA and Me-CCNU* on peripheral leukocyte count:
Six-week old DDY mice each weighing 22±1 g; one group comprising 5 male mice.
CNUA and Me-CCNU were given intraperitoneally on the first day. The, blood was drawn from a tail vein at time intervals to determine the leukocyte count. The samples were used in the form of a solution in an isotonic sodium chloride solution.

Leukemia L-1210 cells = experiment: Antileukemia test, L-1210 (Test Example 1); type: in vivo, CDF mice; details: for Number of survivals: 60 days
Description: (1) Test animals: About 6-week old CDF mice each weighing 22±1 g; one group comprising 7 male mice.
as §1, with “L-1210” for “P-388”, “mice in through three different methods, i.e. intraperitoneal administration, intravenous administration and peroral administration.” for “mice.”, “apothanacia” for “apothanasia”
^a Symbols in the column of "Method of Administration" have the
ip: Intraperitoneal administration,
iv: Intravenous administration,
po: Peroral administration,
day 1: A given amount of CNUA was administered once 24 hours after the
day 1-3: Continuous administration once a day for three days subsequently
^b Rate of apothanasia % (ILS) was calculated according to the
^c Number of survivals means the number of mice which survived for 60
days or longer in the group consisting of the 7 mice tested.

lung autotumor = experiment: Inhibition of mouse lung autotumor induced by ethylnitrosourea (Test Example 5); type: in vivo, DDY mice
Description: 100 mg/kg of ethylnitrosourea was given intraperitoneally to DDY mice 3 to 4 days prior to delivery. After delivery, mice born with lung autotumor were used as the test animals. One group consisted of 10 mice.
Four weeks after birth, a given amount of CNUA was administered in two ways, i.e., intravenous administration and peroral administration at predetermined times. Nine weeks after, the area of the tumor of each mouse was measued and the inhibition rate (%) was calculated.

SMILES: O=NN(CCCl)C(=O)N[C@@H]1[C@H](O)[C@@H](CO)OC(O)[C@@H]1O (stereo partly drawn) [CNUA, 3-[3-(2-chloroethyl)-3-nitrosoureido]-3-deoxy-D-allose]
- antitumor effects [1]: powerful antitumor effects
- ILS (rate of apothanasia) ([2]; 2.23 mg/kg/day, ip, day 1-9): 4%
- ILS (rate of apothanasia) ([2]; 4.45 mg/kg/day, ip, day 1-9): 21%
- ILS (rate of apothanasia) ([2]; 5 mg/kg/day, ip, day 1): 0%
- ILS (rate of apothanasia) ([2]; 6.67 mg/kg/day, ip, day 1-9): 29%
- ILS (rate of apothanasia) ([2]; 10 mg/kg/day, ip, day 1): 0%
- ILS (rate of apothanasia) ([2]; 15 mg/kg/day, iv, day 1): 35%
- ILS (rate of apothanasia) ([2]; 20 mg/kg/day, ip, day 1): 68%
- ILS (rate of apothanasia) ([2]; 30 mg/kg/day, iv, day 1): 80%
- ILS (rate of apothanasia) ([2]; 40 mg/kg/day, ip, day 1): > 172%
- ILS (rate of apothanasia) ([2]; 40 mg/kg/day, iv, day 1): > 200%
- ILS (rate of apothanasia) ([2]; 50 mg/kg/day, iv, day 1): > 200%
- Number of survivals ([2]; 2.23 mg/kg/day, ip, day 1-9): 0/7
- Number of survivals ([2]; 4.45 mg/kg/day, ip, day 1-9): 1/7
- Number of survivals ([2]; 5 mg/kg/day, ip, day 1): 0/7
- Number of survivals ([2]; 6.67 mg/kg/day, ip, day 1-9): 0/7
- Number of survivals ([2]; 10 mg/kg/day, ip, day 1): 0/7
- Number of survivals ([2]; 15 mg/kg/day, iv, day 1): 0/7
- Number of survivals ([2]; 20 mg/kg/day, ip, day 1): 2/7
- Number of survivals ([2]; 30 mg/kg/day, iv, day 1): 1/7
- Number of survivals ([2]; 40 mg/kg/day, ip, day 1): 6/7
- Number of survivals ([2]; 40 mg/kg/day, iv, day 1): 6/7
- Number of survivals ([2]; 50 mg/kg/day, iv, day 1): 5/7
- LD50 (Toxicity tests (LD50); ip): 65.5 mg/kg
- LD50 (Toxicity tests (LD50); iv): 80 mg/kg
- LD50 (Toxicity tests (LD50); po): 550 mg/kg
- ILS (rate of apothanasia) (Leukemia P-388 cells; 3.75 mg/kg/day): 50%
- ILS (rate of apothanasia) (Leukemia P-388 cells; 7.5 mg/kg/day): 90%
- ILS (rate of apothanasia) (Leukemia P-388 cells; 15 mg/kg/day): 240%
- ILS (rate of apothanasia) (Leukemia P-388 cells; 30 mg/kg/day): > 500%
- ILS (rate of apothanasia) (Leukemia P-388 cells; 45 mg/kg/day): > 500%
- ILS (rate of apothanasia) (Leukemia P-388 cells; 60 mg/kg/day): > 500%
- Number of survivals (Leukemia P-388 cells; 3.75 mg/kg/day): 0/7
- Number of survivals (Leukemia P-388 cells; 7.5 mg/kg/day): 0/7
- Number of survivals (Leukemia P-388 cells; 15 mg/kg/day): 3/7
- Number of survivals (Leukemia P-388 cells; 30 mg/kg/day): 5/7
- Number of survivals (Leukemia P-388 cells; 45 mg/kg/day): 7/7
- Number of survivals (Leukemia P-388 cells; 60 mg/kg/day): 6/7
- Peripheral leukocyte count after the administration ([3]; 30 mg/kg ip, 2 day): 84.0 % based on the control
- Peripheral leukocyte count after the administration ([3]; 30 mg/kg ip, 4 day): 82.2 % based on the control
- Peripheral leukocyte count after the administration ([3]; 30 mg/kg ip, 7 day): 85.6 % based on the control
- Peripheral leukocyte count after the administration ([3]; 30 mg/kg ip, 10 day): 84.7 % based on the control
- Peripheral leukocyte count after the administration ([3]; 30 mg/kg ip, 14 day): 159 % based on the control
- Peripheral leukocyte count after the administration ([3]; 60 mg/kg ip, 2 day): 78.2 % based on the control
- Peripheral leukocyte count after the administration ([3]; 60 mg/kg ip, 4 day): 60.0 % based on the control
- Peripheral leukocyte count after the administration ([3]; 60 mg/kg ip, 7 day): 64.5 % based on the control
- Peripheral leukocyte count after the administration ([3]; 60 mg/kg ip, 10 day): 80.0 % based on the control
- Peripheral leukocyte count after the administration ([3]; 60 mg/kg ip, 14 day): 100 % based on the control
- myelotoxicity ([3]; as compared with Me-CCNU): relatively low myelotoxicity
- ILS (rate of apothanasia) (Leukemia L-1210 cells; 5 mg/kg/day, iv, day 1): 29%
- ILS (rate of apothanasia) (Leukemia L-1210 cells; 10 mg/kg/day, iv, day 1): 43%
- ILS (rate of apothanasia) (Leukemia L-1210 cells; 11.3 mg/kg/day, ip, day 1): 86%
- ILS (rate of apothanasia) (Leukemia L-1210 cells; 11.3 mg/kg/day, ip, day 1-3): 143%
- ILS (rate of apothanasia) (Leukemia L-1210 cells; 20 mg/kg/day, iv, day 1): 86%
- ILS (rate of apothanasia) (Leukemia L-1210 cells; 22.5 mg/kg/day, ip, day 1): 157%
- ILS (rate of apothanasia) (Leukemia L-1210 cells; 22.5 mg/kg/day, ip, day 1-3): > 757%
- ILS (rate of apothanasia) (Leukemia L-1210 cells; 40 mg/kg/day, iv, day 1): > 757%
- ILS (rate of apothanasia) (Leukemia L-1210 cells; 45 mg/kg/day, ip, day 1): > 757%
- ILS (rate of apothanasia) (Leukemia L-1210 cells; 45 mg/kg/day, ip, day 1-3): > 757%
- ILS (rate of apothanasia) (Leukemia L-1210 cells; 50 mg/kg/day, iv, day 1): 400%
- ILS (rate of apothanasia) (Leukemia L-1210 cells; 60 mg/kg/day, ip, day 1): > 757%
- ILS (rate of apothanasia) (Leukemia L-1210 cells; 60 mg/kg/day, ip, day 1-3): > 757%
- ILS (rate of apothanasia) (Leukemia L-1210 cells; 100 mg/kg/day, po, day 1): 86%
- ILS (rate of apothanasia) (Leukemia L-1210 cells; 200 mg/kg/day, po, day 1): 100%
- ILS (rate of apothanasia) (Leukemia L-1210 cells; 300 mg/kg/day, po, day 1): 100%
- ILS (rate of apothanasia) (Leukemia L-1210 cells; 400 mg/kg/day, po, day 1): 57%
- Number of survivals (Leukemia L-1210 cells; 5 mg/kg/day, iv, day 1): 0/7
- Number of survivals (Leukemia L-1210 cells; 10 mg/kg/day, iv, day 1): 0/7
- Number of survivals (Leukemia L-1210 cells; 11.3 mg/kg/day, ip, day 1): 1/7
- Number of survivals (Leukemia L-1210 cells; 11.3 mg/kg/day, ip, day 1-3): 1/7
- Number of survivals (Leukemia L-1210 cells; 20 mg/kg/day, iv, day 1): 1/7
- Number of survivals (Leukemia L-1210 cells; 22.5 mg/kg/day, ip, day 1): 3/7
- Number of survivals (Leukemia L-1210 cells; 22.5 mg/kg/day, ip, day 1-3): 5/7
- Number of survivals (Leukemia L-1210 cells; 40 mg/kg/day, iv, day 1): 4/7
- Number of survivals (Leukemia L-1210 cells; 45 mg/kg/day, ip, day 1): 7/7
- Number of survivals (Leukemia L-1210 cells; 45 mg/kg/day, ip, day 1-3): 5/7
- Number of survivals (Leukemia L-1210 cells; 50 mg/kg/day, iv, day 1): 2/7
- Number of survivals (Leukemia L-1210 cells; 60 mg/kg/day, ip, day 1): 4/7
- Number of survivals (Leukemia L-1210 cells; 60 mg/kg/day, ip, day 1-3): 4/7
- Number of survivals (Leukemia L-1210 cells; 100 mg/kg/day, po, day 1): 0/7
- Number of survivals (Leukemia L-1210 cells; 200 mg/kg/day, po, day 1): 3/7
- Number of survivals (Leukemia L-1210 cells; 300 mg/kg/day, po, day 1): 2/7
- Number of survivals (Leukemia L-1210 cells; 400 mg/kg/day, po, day 1): 2/7
- Inhibition rate (lung autotumor; iv, 5 weeks after birth, 40 × 1 mg/kg): 37.2%
- Area of tumor (± S.E.) (lung autotumor; iv, 5 weeks after birth, 40 × 1 mg/kg, p < 0.05, control 1.45 ± 0.30): 0.91 ± 0.81 mm^2
- Inhibition rate (lung autotumor; iv, 5.6 weeks after birth, 40 × 2 mg/kg): 49.2%
- Area of tumor (± S.E.) (lung autotumor; iv, 5.6 weeks after birth, 40 × 2 mg/kg, p < 0.01, control 1.45 ± 0.30): 0.75 ± 0.22 mm^2
- Inhibition rate (lung autotumor; iv, 5.7 weeks after birth, 40 × 2 mg/kg): 46.5%
- Area of tumor (± S.E.) (lung autotumor; iv, 5.7 weeks after birth, 40 × 2 mg/kg, p < 0.01, control 1.45 ± 0.30): 0.79 ± 0.31 mm^2
- Inhibition rate (lung autotumor; po, 5,6,7,8 weeks after birth, 133 × 4 mg/kg): 44.7%
- Area of tumor (± S.E.) (lung autotumor; po, 5,6,7,8 weeks after birth, 133 × 4 mg/kg, p < 0.01, control 1.41 ± 0.44): 0.78 ± 0.22 mm^2
- Inhibition rate (lung autotumor; po, 5,6,7,8 weeks after birth, 200 × 4 mg/kg): 44.7%
- Area of tumor (± S.E.) (lung autotumor; po, 5,6,7,8 weeks after birth, 200 × 4 mg/kg, p < 0.01, control 1.41 ± 0.44): 0.78 ± 0.16 mm^2
- Inhibition rate (lung autotumor; po, 5,6,7,8 weeks after birth, 267 × 4 mg/kg): 61.0%
- Area of tumor (± S.E.) (lung autotumor; po, 5,6,7,8 weeks after birth, 267 × 4 mg/kg, p < 0.01, control 1.41 ± 0.44): 0.55 ± 0.18 mm^2
- Inhibition rate (lung autotumor; po, 5,6,7,8 weeks after birth, 333 × 4 mg/kg): 53.2%
- Area of tumor (± S.E.) (lung autotumor; po, 5,6,7,8 weeks after birth, 333 × 4 mg/kg, p < 0.01, control 1.41 ± 0.44): 0.66 ± 0.14 mm^2
